The source of these data is ChEMBL document CHEMBL6127078, “Discovery of 7-(1-methyl-1H-pyrazol-4-yl)-1,6-naphthyridine derivatives as potent inhibitors of rearranged during transfection (RET) and RET solvent-front mutants for overcoming selpercatinib resistance” (Eur J Med Chem, 2024).

The IC50 is the concentration needed to halve the response being measured.

The target of experiment [1] is Proto-oncogene tyrosine-protein kinase receptor Ret (Homo sapiens, UniProt P07949, M918T). In words: Inhibition of RET M918T mutant (unknown origin) by FRET-based ZLyte kinase assay.
The target in experiment [2] is Proto-oncogene tyrosine-protein kinase receptor Ret (Homo sapiens, UniProt P07949, V804L). In words: Inhibition of RET V804L mutant (unknown origin) by FRET-based ZLyte kinase assay.
In experiment [3] the target is Proto-oncogene tyrosine-protein kinase receptor Ret (Homo sapiens, UniProt P07949). In words: Inhibition of wild type RET (unknown origin) by FRET-based ZLyte kinase assay.
The target of experiment [4] is Proto-oncogene tyrosine-protein kinase receptor Ret (Homo sapiens, UniProt P07949, G810R). In words: Inhibition of RET G810R mutant (unknown origin) by FRET-based ZLyte kinase assay.
For experiment [5], the system named is BaF3. In words: Antiproliferative activity against mouse BaF3 cells harbouring CCDC6-RET wild type assessed as inhibition of cell viability. It counts as functional, cell-based.
Experiment [6] concerns BaF3. In words: Antiproliferative activity against mouse BaF3 cells harbouring KIF5B-RET wild type assessed as inhibition of cell viability. It counts as functional, cell-based.
The test system of experiment [7] is BaF3. In words: Antitumor activity against mouse BaF3 cells harbouring KIF5B-RET G810R mutant xenografted in mouse model assessed as tumor growth inhibition at 10 mg/kg BID measured upto 14 days relative to control. It counts as functional. Particulars: BaF3, 336 h, time <= 14 day, read-out: TGI.
For experiment [8], the system named is BaF3. In words: Antiproliferative activity against mouse BaF3 cells harbouring CCDC6-RET G810R mutant assessed as inhibition of cell viability. The format is functional, cell-based.
In experiment [9] the test system is BaF3. In words: Antitumor activity against mouse BaF3 cells harbouring KIF5B-RET-wild type xenografted in mouse model assessed as tumor growth inhibition at 10 mg/kg BID measured upto 14 days relative to control. The format is functional. The conditions noted are these: BaF3, 336 h, time <= 14 day, read-out: TGI.
Experiment [10] relates to BaF3. In words: Antiproliferative activity against mouse BaF3 cells harbouring KIF5B-RET V804L mutant assessed as inhibition of cell viability. It counts as functional, cell-based.
The subject of experiment [11] is BaF3. In words: Antiproliferative activity against mouse BaF3 cells harbouring KIF5B-RET G810R mutant assessed as inhibition of cell viability. The format is functional, cell-based.
Experiment [12] concerns Proto-oncogene tyrosine-protein kinase receptor Ret (Homo sapiens), P07949 [G810R]. In words: Potency index, ratio of selpercatinib IC50 to test compound IC50 for inhibition of RET G810R mutant (unknown origin) by FRET-based ZLyte kinase assay.
The subject of experiment [13] is Proto-oncogene tyrosine-protein kinase receptor Ret (Homo sapiens), P07949 [V804L]. In words: Potency index, ratio of Vandetanib IC50 to test compound IC50 for inhibition of RET V804L mutant (unknown origin) by FRET-based ZLyte kinase assay.
Experiment [14] has as its system Proto-oncogene tyrosine-protein kinase receptor Ret (Homo sapiens), P07949 [G810R]. In words: Potency index, ratio of Vandetanib IC50 to test compound IC50 for inhibition of RET G810R mutant (unknown origin) by FRET-based ZLyte kinase assay.

Chain of Proto-oncogene tyrosine-protein kinase receptor Ret (Homo sapiens, UniProt P07949, G810R) (P07949 29-1114 G810R limits assumed): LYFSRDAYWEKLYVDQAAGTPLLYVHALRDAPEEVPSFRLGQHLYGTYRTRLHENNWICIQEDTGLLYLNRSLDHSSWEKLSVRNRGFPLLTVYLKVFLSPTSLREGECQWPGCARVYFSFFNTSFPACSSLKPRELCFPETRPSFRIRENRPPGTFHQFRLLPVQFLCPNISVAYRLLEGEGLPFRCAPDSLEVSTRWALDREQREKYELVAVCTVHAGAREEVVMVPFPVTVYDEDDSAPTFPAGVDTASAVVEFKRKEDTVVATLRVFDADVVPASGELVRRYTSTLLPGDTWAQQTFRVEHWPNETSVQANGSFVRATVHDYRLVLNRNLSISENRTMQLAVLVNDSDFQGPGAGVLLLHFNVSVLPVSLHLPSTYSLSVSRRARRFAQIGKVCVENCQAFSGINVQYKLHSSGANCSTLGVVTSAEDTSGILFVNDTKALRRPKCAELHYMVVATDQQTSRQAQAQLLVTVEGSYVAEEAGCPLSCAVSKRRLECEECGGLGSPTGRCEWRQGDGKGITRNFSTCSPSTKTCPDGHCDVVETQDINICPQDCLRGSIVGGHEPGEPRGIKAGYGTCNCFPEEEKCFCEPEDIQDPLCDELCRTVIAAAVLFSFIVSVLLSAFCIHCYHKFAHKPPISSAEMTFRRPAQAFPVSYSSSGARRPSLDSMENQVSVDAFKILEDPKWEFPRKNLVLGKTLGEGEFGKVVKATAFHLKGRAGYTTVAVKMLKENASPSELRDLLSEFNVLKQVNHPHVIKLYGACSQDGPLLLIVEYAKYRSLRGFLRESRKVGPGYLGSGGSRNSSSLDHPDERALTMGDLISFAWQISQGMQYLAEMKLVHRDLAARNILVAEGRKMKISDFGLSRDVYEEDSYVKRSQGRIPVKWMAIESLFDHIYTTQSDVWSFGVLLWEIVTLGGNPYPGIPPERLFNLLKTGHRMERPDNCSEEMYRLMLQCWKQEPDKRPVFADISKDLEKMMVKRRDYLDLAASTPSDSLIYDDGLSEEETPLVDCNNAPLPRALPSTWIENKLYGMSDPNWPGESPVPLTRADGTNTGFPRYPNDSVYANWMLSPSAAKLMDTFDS
Chain of Proto-oncogene tyrosine-protein kinase receptor Ret (Homo sapiens), P07949 [G810R] (P07949 whole entry G810R): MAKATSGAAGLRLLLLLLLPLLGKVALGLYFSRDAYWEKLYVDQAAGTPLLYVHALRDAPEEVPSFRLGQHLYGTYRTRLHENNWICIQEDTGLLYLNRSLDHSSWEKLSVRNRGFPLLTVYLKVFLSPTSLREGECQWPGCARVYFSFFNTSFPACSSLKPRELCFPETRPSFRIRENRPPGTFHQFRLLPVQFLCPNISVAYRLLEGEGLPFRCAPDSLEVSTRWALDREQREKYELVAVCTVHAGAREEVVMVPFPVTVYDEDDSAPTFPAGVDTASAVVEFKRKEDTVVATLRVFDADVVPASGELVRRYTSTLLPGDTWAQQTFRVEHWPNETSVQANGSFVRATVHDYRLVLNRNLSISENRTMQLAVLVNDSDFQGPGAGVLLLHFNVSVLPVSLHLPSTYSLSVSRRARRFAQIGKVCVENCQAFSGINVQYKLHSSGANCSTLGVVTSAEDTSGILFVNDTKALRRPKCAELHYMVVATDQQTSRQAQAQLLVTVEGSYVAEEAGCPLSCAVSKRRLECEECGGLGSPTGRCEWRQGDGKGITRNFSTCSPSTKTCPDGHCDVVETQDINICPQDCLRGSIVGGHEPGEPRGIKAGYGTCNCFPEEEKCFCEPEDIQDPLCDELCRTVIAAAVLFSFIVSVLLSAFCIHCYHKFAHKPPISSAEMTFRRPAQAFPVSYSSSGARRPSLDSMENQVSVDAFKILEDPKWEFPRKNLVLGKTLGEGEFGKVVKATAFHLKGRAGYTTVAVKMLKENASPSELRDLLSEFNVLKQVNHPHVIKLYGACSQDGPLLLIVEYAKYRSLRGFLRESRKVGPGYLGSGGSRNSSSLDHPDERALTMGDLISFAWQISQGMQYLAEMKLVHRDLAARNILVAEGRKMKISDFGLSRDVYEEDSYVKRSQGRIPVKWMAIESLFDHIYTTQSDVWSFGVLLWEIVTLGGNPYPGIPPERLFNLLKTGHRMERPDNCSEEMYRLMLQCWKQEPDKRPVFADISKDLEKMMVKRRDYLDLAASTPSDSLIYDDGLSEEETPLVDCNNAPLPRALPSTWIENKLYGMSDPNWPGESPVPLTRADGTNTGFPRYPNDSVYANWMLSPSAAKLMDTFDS
Chain of Proto-oncogene tyrosine-protein kinase receptor Ret (Homo sapiens, UniProt P07949, V804L) (P07949 29-1114 V804L limits assumed): as the sequence (P07949 29-1114 G810R limits assumed) above, with V776L, R782G counted along it
Chain of Proto-oncogene tyrosine-protein kinase receptor Ret (Homo sapiens, UniProt P07949, M918T) (P07949 29-1114 M918T limits assumed): as the sequence (P07949 29-1114 G810R limits assumed) above, with R782G, M890T counted along it
Chain of Proto-oncogene tyrosine-protein kinase receptor Ret (Homo sapiens, UniProt P07949) (P07949 whole entry): as the sequence (P07949 whole entry G810R) above, with R810G counted along it
Chain of Proto-oncogene tyrosine-protein kinase receptor Ret (Homo sapiens), P07949 [V804L] (P07949 whole entry V804L): as the sequence (P07949 whole entry G810R) above, with V804L, R810G counted along it

As to `COc1ccc(CN2C3CC2CN(c2ccc(-c4nc(-c5cnn(C)c5)cc5ncccc45)cn2)C3)cc1N`, the IC50 in experiment [1] was found to be 176 nM; in experiment [2], 86.4 nM; in [3], 166 nM.
As to `Cn1cc(-c2cc3ncccc3c(-c3ccc(N4CC5CC(C4)N5Cc4ccc(Cl)nc4)nc3)n2)cn1`, the IC50 in experiment [1] was 5.1 nM; in experiment [2] it was 2.3 nM; in [4], 361 nM; in [3], 9.8 nM.
Take `COc1ccc(CN2C3CC2CN(c2ccc(-c4nc(C5CC5)cc5ncccc45)cn2)C3)cn1`: the IC50 in experiment [1] stood at 17.3 nM; in experiment [2], 12.5 nM; in [4], 538 nM; in experiment [3], 15.7 nM.
With `COc1ccc(CN2C3CC2CN(c2ccc(-c4nc(-c5cnn(C)c5)cc5ncccc45)cn2)C3)cc1Br`, the IC50 in experiment [1] came out at 17.2 nM; in experiment [2], 13.7 nM; in experiment [4], 107 nM; in [3], 41.3 nM.
Take `Cn1cc(-c2cc3ncccc3c(-c3ccc(N4CC5CC(C4)N5C(=O)CN4CCOCC4)nc3)n2)cn1`: the IC50 in experiment [1] turned out to be 107 nM; in experiment [2], 121 nM; in experiment [3], 112 nM.
Take `Cn1cc(-c2cc3ncccc3c(-c3ccc(N4CC5CC(C4)N5C(=O)CC4CCOCC4)nc3)n2)cn1`: the IC50 in experiment [1] is 54.9 nM; in experiment [2] it was 91.4 nM; in experiment [3], 62.2 nM.
In the case of `COc1ccc(CN2C3CC2CN(c2ccc(-c4cccc5c4OCCO5)cn2)C3)cn1`, the half-maximal inhibitory concentration (IC50) in experiment [1], in [2] and in [3] was greater than 1000 nM each time.
`COc1ccc(CN2C3CC2CN(c2ccc(-c4nc(-c5ccn(C)n5)cc5ncccc45)cn2)C3)cn1`: the IC50 was found to be 50.4 nM in [1], 21.1 nM in experiment [2], 96.7 nM in experiment [4] and 49.4 nM in experiment [3].
Regarding `COc1ccc(CN2C3CC2CN(c2ccc(-c4nc(C)cc5ncccc45)cn2)C3)cn1`, the half-maximal inhibitory concentration (IC50) in experiment [1] turned out to be 33.6 nM; in [2], 18.6 nM; in experiment [4] it was 416 nM; in experiment [3], 28.5 nM.
The corresponding values for `Cn1cc(-c2cc3ncccc3c(-c3ccc(N4CC5CC(C4)N5C(=O)Cc4cc(F)cc(F)c4)nc3)n2)cn1` are 6.7 nM, 4.7 nM, 221 nM and 6.7 nM.
As for `Cn1cc(-c2cc3ncccc3c(-c3ccc(N4CC5CC(C4)N5Cc4cccnc4)nc3)n2)cn1`, the IC50 in experiment [1] worked out at 33.5 nM; in experiment [2], 41.1 nM; in experiment [4], 371 nM; in experiment [3] it was 26.7 nM.
Turning to `Cn1cc(-c2cc3ncccc3c(-c3ccc(N4CC5CC(C4)N5Cc4ccc(F)nc4)nc3)n2)cn1`, the concentration for half-maximal inhibition (IC50) came to 9.3 nM in experiment [1], 5.6 nM in experiment [2], 237 nM in experiment [4] and 16.8 nM in experiment [3].
For the molecule `COc1ccc(CN2C3CC2CN(c2ccc(-c4cc(OCC(C)(C)O)cn5ncc(C#N)c45)cn2)C3)cn1` [SELPERCATINIB], the IC50 with BaF3 [5] is 9.5 nM; with BaF3 [6], 8.2 nM; in the experiment with BaF3 [8], 896 nM; in the experiment on BaF3 [10], 17.8 nM; in the experiment with BaF3 [11], 2170 nM. Also, the inhibition in vivo at 10 mg/kg was 20% in the experiment on BaF3 [7] and 89% with BaF3 [9].
On to `COc1ccc(CN2C3CC2CN(c2ccc(-c4cccc5ncncc45)cn2)C3)cn1`, for which the half-maximal inhibitory concentration (IC50) in [1] came to 91.5 nM; in [2], 70.4 nM; in experiment [4], 307 nM; in experiment [3] it was 86.3 nM.
Regarding `COc1ccc(CN2C3CC2CN(c2ccc(-c4nc(-c5cnn(C)c5)cc5ncccc45)cn2)C3)cn1`, the concentration for half-maximal inhibition (IC50) was 1.2 nM in experiment [1], 0.4 nM in experiment [2], 56.2 nM in experiment [4] and 3.8 nM in experiment [3]. For the same molecule, in experiment [12], the Ratio IC50 is 4.
In the case of `COc1ccc(CC(=O)N2C3CC2CN(c2ccc(-c4nc(-c5cnn(C)c5)cc5ncccc45)cn2)C3)cn1`, the IC50 in experiment [1] came out at 4.9 nM; in [2], 2.6 nM; in experiment [4], 132 nM; in [3], 5.7 nM.
For the molecule `COc1ccc(CN2C3CC2CN(c2ccc(-c4nccc5ncccc45)cn2)C3)cn1`, the Ratio IC50 came out at 16 in experiment [13] and 4 in [14]. Moreover, the IC50 worked out at 35.8 nM in experiment [1], 42.2 nM in experiment [2], 186 nM in experiment [4] and 57.6 nM in experiment [3].
On to `Cn1cc(-c2cc3ncccc3c(-c3ccc(N4CC5CC(C4)N5C(=O)Cc4cccc(Cl)c4)nc3)n2)cn1`, for which the IC50 in experiment [1] is 5.9 nM; in [2], 4 nM; in experiment [4], 180 nM; in [3], 9.1 nM.
The corresponding values for `COc1ccc(CN2C3CC2CN(c2ccc(-c4nc(-c5cc[nH]n5)cc5ncccc45)cn2)C3)cn1` are 49.7 nM, 55.7 nM, 109 nM and 68.2 nM.
Consider `COc1ccc(CN2C3CC2CN(c2ccc(-c4cccc5ncccc45)cn2)C3)cn1`, for which the values for the IC50 in experiment [1], in [2] and in experiment [3] were 304 nM, 285 nM and 198 nM, respectively.
The like results for `COc1ccc(CN2C3CC2CN(c2ccc(-c4nc(-c5cnn(C)c5)cc5ncccc45)cn2)C3)cc1[N+](=O)[O-]` were, in that order, 127 nM, 95.2 nM and 247 nM.
Consider `Cn1cc(-c2cc3ncccc3c(-c3ccc(N4CC5CC(C4)N5C(=O)Cc4cccc(F)c4)nc3)n2)cn1`, for which the IC50 in [1] came to 3 nM; in [2] it was 2.3 nM; in experiment [4], 149 nM; in experiment [3], 4.8 nM.
As for `COc1ccc(CN2C3CC2CN(c2ccc(-c4nc(-c5cnn(C)c5)cc5ncccc45)cn2)C3)cc1Cl`, the IC50 in experiment [1] was determined as 11.3 nM; in [2], 8.5 nM; in [4] it was 85.9 nM; in experiment [3], 25.1 nM.
Consider `COc1ccc(CN2C3CC2CN(c2ccc(-c4nc(-c5cnn(C)c5)cc5ncccc45)cn2)C3)cc1C(F)(F)F`, for which the IC50 amounted to 14.7 nM in experiment [1], 22.6 nM in experiment [2], 116 nM in experiment [4] and 37.5 nM in experiment [3].
`COc1ccc(CN2C3CC2CN(c2ccc(-c4nc(-c5cnn(C)c5)cc5ncccc45)cn2)C3)cc1`: the IC50 in experiment [1] came to 4.7 nM; in experiment [2] it was 3.1 nM; in experiment [4] it was 114 nM; in experiment [3], 7.6 nM.
Consider `COc1ccc(CN2C3CC2CN(c2ccc(-c4nc(Cl)cc5ncccc45)cn2)C3)cn1`, for which the IC50 in [1] turned out to be 58.4 nM; in experiment [2], 57.2 nM; in [4], 229 nM; in experiment [3], 69.3 nM.
Take `COc1ccc(CN2C3CC2CN(c2ccc(-c4nc(-c5cnn(C)c5)cc5ncccc45)cn2)C3)cc1F`: the IC50 turned out to be 0.6 nM in [1], 0.3 nM in [2], 37.8 nM in experiment [4] and 5.5 nM in experiment [3]. Moreover, the Ratio IC50 in [12] amounted to 6.
For `COc1ccc(CN2C3CC2CN(c2ccc(-c4cccc5nccnc45)cn2)C3)cn1`, the IC50 was 141 nM in [1], 135 nM in [2] and 172 nM in experiment [3].
As to `COc1ccc(CN2C3CC2CN(c2ccc(-c4nc(-c5ccncc5)cc5ncccc45)cn2)C3)cn1`, the IC50 is 215 nM in [1], 328 nM in experiment [2] and 166 nM in experiment [3].
On to `COc1ccc(CN2C3CC2CN(c2ccc(-c4nc(-c5ccc(F)cc5)cc5ncccc45)cn2)C3)cn1`, for which the IC50 came out at 408 nM in experiment [1], 517 nM in [2] and 242 nM in experiment [3].
As for `Cc1ccc(CN2C3CC2CN(c2ccc(-c4nc(-c5cnn(C)c5)cc5ncccc45)cn2)C3)cn1`, the IC50 in experiment [1] came to 16.2 nM; in experiment [2], 14.4 nM; in experiment [4], 437 nM; in [3] it was 12.5 nM.
Turning to `COc1ccc(CN2C3CC2CN(c2ccc(-c4nc(-c5cn[nH]c5)cc5ncccc45)cn2)C3)cn1`, the IC50 is 6.5 nM in [1], 1.1 nM in experiment [2], 69.1 nM in experiment [4] and 5.9 nM in [3]. Further, the Ratio IC50 in [12] was determined as 4.
Turning to `COc1ccc(CN2C3CC2CN(c2ccc(-c4cccc5cnccc45)cn2)C3)cn1`, the IC50 in experiment [1] was determined as 615 nM; in experiment [2], 786 nM; in experiment [3] it was 591 nM.
